Laboratory results taken from PubChem BioAssay AID248 (DTP/NCI, 2004).
Values joined by “and” are separate entries in the source; they are usually repeats but may differ in a detail not shown here. Equal values may be shown once. Inconclusive results and toxic doses are left out.

Test system: L1210 leukemia ip in BDF1 mice, survival T/C
Test: NCI In Vivo Anticancer Drug Screen. Data for tumor model L1210 Leukemia (intraperitoneal) in B6D2F1 (BDF1) mice
Conditions: endpoint: mean survival time, higher = longer survival
Procedure, shortened: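 Each compound was tested against a transplantable tumor grown in mice. The endpoint was survival, with treated animals benchmarked against vehicle controls as a simple ratio.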

[1] = dose: 100.0 mg/kg/injection, schedule: Q01DX001 (ip), vehicle: saline with Tween-80
[2] = dose: 100.0 mg/kg/injection, schedule: Q01DX009 (ip), vehicle: saline with Tween-80
[3] = dose: 100.0 mg/kg/injection, schedule: Q04DX002 (ip), vehicle: saline with Tween-80
[4] = dose: 100.0 mg/kg/injection, schedule: Q04DX003 (ip), vehicle: saline with Tween-80
[5] = dose: 200.0 mg/kg/injection, schedule: Q01DX001 (ip), vehicle: saline with Tween-80
[6] = dose: 200.0 mg/kg/injection, schedule: Q01DX009 (ip), vehicle: saline with Tween-80
[7] = dose: 200.0 mg/kg/injection, schedule: Q04DX003 (ip), vehicle: saline with Tween-80
[8] = dose: 400.0 mg/kg/injection, schedule: Q01DX001 (ip), vehicle: saline with Tween-80
[9] = dose: 400.0 mg/kg/injection, schedule: Q04DX003 (ip), vehicle: saline with Tween-80
[10] = dose: 50.0 mg/kg/injection, schedule: Q01DX009 (ip), vehicle: saline with Tween-80
[11] = dose: 100.0 mg/kg/injection, schedule: Q04DX003 (ip), vehicle: saline
[12] = dose: 400.0 mg/kg/injection, schedule: Q01DX001 (ip), vehicle: saline
[13] = dose: 200.0 mg/kg/injection, schedule: Q04DX003 (ip), vehicle: saline
[14] = dose: 400.0 mg/kg/injection, schedule: Q04DX003 (ip), vehicle: saline
[15] = dose: 100.0 mg/kg/injection, schedule: Q01DX001 (ip), vehicle: saline
[16] = dose: 200.0 mg/kg/injection, schedule: Q01DX001 (ip), vehicle: saline
[17] = dose: 100.0 mg/kg/injection, schedule: Q04DX002 (ip), vehicle: Klucel (hydroxypropylcellulose) (HPC)
[18] = dose: 200.0 mg/kg/injection, schedule: Q04DX002 (ip), vehicle: Klucel (hydroxypropylcellulose) (HPC)
[19] = dose: 400.0 mg/kg/injection, schedule: Q04DX002 (ip), vehicle: Klucel (hydroxypropylcellulose) (HPC)

O=C(O)CC(NC(=O)OCc1ccccc1)c1ccc(Cl)cc1 (stereo not given)
T/C [1]: 90 % of control
T/C [2]: 100 % of control and 112 % of control
T/C [3]: 103 % of control
T/C [4]: 101 % of control
T/C [5]: 94 % of control
T/C [6]: 93 % of control and 102 % of control
T/C (dose: 200.0 mg/kg/injection, schedule: Q04DX002 (ip), vehicle: saline with Tween-80): 103 % of control
T/C [7]: 93 % of control
T/C [8]: 101 % of control
T/C (dose: 400.0 mg/kg/injection, schedule: Q04DX002 (ip), vehicle: saline with Tween-80): 92 % of control
T/C [9]: 101 % of control

CC1=CC(=O)C(c2ccccc2)CC1 (stereo not given) (tested in a mixture with another compound)
T/C [10]: 96 % of control
T/C [2]: 96 % of control
T/C [6]: 96 % of control

CCN(CCO)Cc1cccc2ccccc12
T/C (dose: 25.0 mg/kg/injection, schedule: Q04DX003 (ip), vehicle: saline): 97 % of control
T/C (dose: 50.0 mg/kg/injection, schedule: Q04DX003 (ip), vehicle: saline): 101 % of control
T/C [4]: 98 % of control
T/C [11]: 101 % of control

O=C(CCc1ccc(C(=O)Nc2ccc(C3=NCCCN3)cc2)cc1)Nc1ccc(C2=NCCCN2)cc1
T/C (dose: 0.37 mg/kg/injection, schedule: Q01DX Z (ip), vehicle: water): 98 % of control
T/C (dose: 0.75 mg/kg/injection, schedule: Q01DX Z (ip), vehicle: water): 108 % of control
T/C (dose: 1.0 mg/kg/injection, schedule: Q01DX Z (ip), vehicle: water): 121 % of control
T/C (dose: 4.0 mg/kg/injection, schedule: Q01DX Z (ip), vehicle: water): 232 % of control
T/C (dose: 8.0 mg/kg/injection, schedule: Q01DX Z (ip), vehicle: water): 270 % of control
T/C (dose: 25.0 mg/kg/injection, schedule: Q01DX Z (oral), vehicle: water): 102 % of control
T/C (dose: 50.0 mg/kg/injection, schedule: Q01DX Z (oral), vehicle: water): 93 % of control
T/C (dose: 100.0 mg/kg/injection, schedule: Q01DX Z (oral), vehicle: water): 93 % of control
T/C (dose: 200.0 mg/kg/injection, schedule: Q01DX Z (oral), vehicle: water): 102 % of control

Nc1nc2ncc(CN(N=O)c3ccc(C(=O)NC(CCC(=O)O)C(=O)O)cc3)nc2c(=O)[nH]1 (stereo not given)
T/C (dose: 0.62 mg/kg/injection, schedule: Q01DX009 (ip), vehicle: water): 98 % of control
T/C (dose: 1.25 mg/kg/injection, schedule: Q01DX009 (ip), vehicle: water): 100 % of control
T/C (dose: 2.5 mg/kg/injection, schedule: Q01DX009 (ip), vehicle: water): 98 % of control
T/C (dose: 5.0 mg/kg/injection, schedule: Q01DX009 (ip), vehicle: water): 96 % of control
T/C (dose: 10.0 mg/kg/injection, schedule: Q01DX009 (ip), vehicle: water): 98 % of control

CCOC(=O)C(N)CCSSCCC(N)C(=O)OCC (stereo not given)
T/C (dose: 177.0 mg/kg/injection, schedule: Q01DX001 (ip), vehicle: saline): 92 % of control
T/C (dose: 267.0 mg/kg/injection, schedule: Q01DX001 (ip), vehicle: saline): 92 % of control
T/C [12]: 95 % of control
T/C (dose: 600.0 mg/kg/injection, schedule: Q01DX001 (ip), vehicle: saline): 104 % of control

Cc1cccc(=O)n1CCC#N
T/C (dose: 100.0 mg/kg/injection, schedule: Q01DX009 (ip), vehicle: saline): 96 % of control
T/C [11]: 101 % of control
T/C (dose: 200.0 mg/kg/injection, schedule: Q01DX009 (ip), vehicle: saline): 106 % of control
T/C [13]: 93 % of control
T/C (dose: 400.0 mg/kg/injection, schedule: Q01DX009 (ip), vehicle: saline): 112 % of control
T/C [14]: 106 % of control

CC(C)(C)C1CCCCC1O (stereo not given)
T/C [15]: 92 % of control
T/C [16]: 97 % of control
T/C [12]: 92 % of control

O=[N+]([O-])c1ccccc1N=Cc1ccccc1O.[Co]
T/C (dose: 100.0 mg/kg/injection, schedule: Q01DX001 (ip), vehicle: other): 98 % of control
T/C (dose: 200.0 mg/kg/injection, schedule: Q01DX001 (ip), vehicle: other): 104 % of control

COC1OC2COc3ccccc3OC2C(NC(N)=S)C1S (stereo not given)
T/C [4]: 102 % of control
T/C [7]: 95 % of control
T/C [9]: 102 % of control

Cc1cc(Cl)ccc1OCC(=O)NCC(=O)O
T/C [17]: 90 % of control
T/C [18]: 97 % of control
T/C [19]: 105 % of control

[N-]=[N+]=NC(=O)C1C2CC3C(C2)C31 (stereo not given)
T/C (dose: 100.0 mg/kg/injection, schedule: Q01DX001 (ip), vehicle: carboxymethylcellulose (CMC)): 95 % of control
T/C (dose: 200.0 mg/kg/injection, schedule: Q01DX001 (ip), vehicle: carboxymethylcellulose (CMC)): 88 % of control

Cc1cc(N)ccc1/C=C/C(=O)O
T/C [11]: 97 % of control
T/C [13]: 98 % of control
T/C [14]: 93 % of control

O=C1NCN(CCO)CN1
T/C [11]: 95 % of control
T/C [13]: 91 % of control
T/C [14]: 98 % of control

O=Nc1ccc(NO)cc1
T/C [4]: 98 % of control and 100 % of control
T/C [7]: 98 % of control and 100 % of control
T/C [9]: 108 % of control and 91 % of control

C=CC[Si](CC=C)(CC=C)OCC
T/C (dose: 150.0 mg/kg/injection, schedule: Q01DX001 (ip), vehicle: other): 95 % of control
T/C (dose: 300.0 mg/kg/injection, schedule: Q01DX001 (ip), vehicle: other): 101 % of control

COc1ccccc1C=O
T/C (dose: 100.0 mg/kg/injection, schedule: Q01DX009 (ip), vehicle: Klucel (hydroxypropylcellulose) (HPC)): 90 % of control
T/C (dose: 200.0 mg/kg/injection, schedule: Q01DX009 (ip), vehicle: Klucel (hydroxypropylcellulose) (HPC)): 90 % of control
T/C (dose: 400.0 mg/kg/injection, schedule: Q01DX009 (ip), vehicle: Klucel (hydroxypropylcellulose) (HPC)): 106 % of control

ClCSc1ccccc1
T/C (dose: 100.0 mg/kg/injection, schedule: Q04DX003 (ip), vehicle: other): 100 % of control
T/C (dose: 200.0 mg/kg/injection, schedule: Q04DX003 (ip), vehicle: other): 104 % of control
T/C (dose: 400.0 mg/kg/injection, schedule: Q04DX003 (ip), vehicle: other): 102 % of control

COC1OC(CCl)C(OC(C)=O)C(OC(C)=O)C1OS(C)(=O)=O (stereo not given)
T/C [17]: 91 % of control
T/C [18]: 91 % of control
T/C [19]: 97 % of control

Cc1nc(N)[nH]c(=O)c1CCCNS(=O)(=O)c1ccc(N)cc1
T/C (dose: 50.0 mg/kg/injection, schedule: Q01DX001 (ip), vehicle: saline): 100 % of control
T/C [15]: 97 % of control
T/C [16]: 100 % of control
T/C [12]: 94 % of control

CN=C(NN(C)C)c1ccc(NC(=O)c2ccc(C(=O)Nc3ccc(C(=NC)NN(C)C)cc3)cc2)cc1
T/C (dose: 2.5 mg/kg/injection, schedule: Q01DX Z (ip), vehicle: carboxymethylcellulose (CMC)): 97 % of control
T/C (dose: 5.0 mg/kg/injection, schedule: Q01DX Z (ip), vehicle: carboxymethylcellulose (CMC)): 111 % of control
T/C (dose: 25.0 mg/kg/injection, schedule: Q01DX Z (oral), vehicle: carboxymethylcellulose (CMC)): 116 % of control
T/C (dose: 50.0 mg/kg/injection, schedule: Q01DX Z (oral), vehicle: carboxymethylcellulose (CMC)): 110 % of control
T/C (dose: 100.0 mg/kg/injection, schedule: Q01DX Z (oral), vehicle: carboxymethylcellulose (CMC)): 102 % of control
T/C (dose: 200.0 mg/kg/injection, schedule: Q01DX Z (oral), vehicle: carboxymethylcellulose (CMC)): 104 % of control

Clc1ccc(C2=NC(c3ccccc3)N3C2C3c2ccccc2)cc1 (stereo not given)
T/C [1]: 95 % of control
T/C [5]: 89 % of control
T/C [8]: 89 % of control

CC(C)NC=O
T/C [15]: 96 % of control
T/C [16]: 102 % of control
T/C [12]: 104 % of control

CCCCOP(=O)(OCCCC)N1CCCCC1
T/C (dose: 25.0 mg/kg/injection, schedule: Q04DX002 (ip), vehicle: saline with Tween-80): 94 % of control
T/C (dose: 50.0 mg/kg/injection, schedule: Q04DX002 (ip), vehicle: saline with Tween-80): 108 % of control
T/C [3]: 91 % of control

C=C(C(=O)c1ccccc1)C(O)c1ccccc1 (stereo not given)
T/C [2]: 104 % of control
T/C [4]: 100 % of control
T/C [6]: 90 % of control
T/C [7]: 100 % of control
T/C [9]: 97 % of control

Cc1cc(C)c(NC(=O)NCCCl)c(C)c1
T/C [10]: 103 % of control
T/C [2]: 109 % of control
T/C [4]: 91 % of control
T/C [6]: 116 % of control
T/C [7]: 93 % of control
T/C [9]: 117 % of control
